119 compounds from a melting point compilation (Tetko et al.) can be followed below.

Structures are written as SMILES.

For orientation: melting point means the temperature of the solid-liquid transition. In turn, `Cc1cc(Cl)c2ccccc2n1` gave a melting point of 39 to 41 °C. For the compound `CCOC(=O)c1c2ccccc2nn1C`, the melting point was 50 to 52 °C.

`FC(F)=C(F)C(F)(F)F` showed a melting point of -156 °C. With `CCOC(=O)Cn1c(Br)nc(Cl)c1Cl`, the melting point fell in the range of 42 to 45 °C. Compound `O=C(c1ccc(F)cc1)C1CC1` displayed a melting point of -15 °C. `FC(F)(F)c1ccc(N=C=S)cc1` yielded a melting point of 41 to 43 °C. With `CCC(=NNc1cccc(NN=C(CC)C(=O)O)c1)C(=O)O`, the melting point was found to be 190 °C. Then `CC1CCc2cc3c(cc2N1)CCC(C)N3` (centres undefined), with 125 to 134 °C. The compound `CCC1CC2CC3c4[nH]c5cc(OC)ccc5c4CCN(C2)C13` (centres undefined) registered a melting point of 214 °C. `Cc1cc(Cl)cc(C)c1N` came in with a melting point of 48 °C. Then `Cc1ccc(Oc2ncccc2N)c2c1CCC2`, with 150 °C.

`O=S(=O)(Cl)C(Cl)(Cl)Cl` had a melting point of 140 °C. `COc1cc(C)c(S(=O)(=O)Cl)c(C)c1C` yielded a melting point of 58 °C. Take `CC(C)Nc1nc(Cl)nc(NC(C)C)n1`: the melting point came to 213 °C.

Turning to `BrC(=NNc1ccccc1)c1ccccc1`, the melting point turned out to be 190 °C. `c1ccc(OCc2ccc(CCN3CCOCC3)cc2)cc1` returned a melting point of 86 °C. The result for `COC(=O)NC1C(O)OC(CO)C(O)C1O` (centres undefined) reads 196 °C. Take `Nc1cc2ccccc2cc1N`: the melting point is 199 °C. For the compound `N#CCCOCCC#N`, the melting point is -26.3 °C. For the compound `O=C(O)c1ccccc1C(=O)O`, the melting point was in the range of 200 to 205 °C. Then `CS(=O)(=O)CC#N`, with 84 °C; and `Cc1nc(-c2ccc3c(c2)CCO3)sc1C(=O)O`, with 221 to 225 °C; and `Fc1ccc(Br)c2ccccc12`, with 35 °C.

Compound `COC(CCl)OC` yielded a melting point of -73 °C. `C=C(CC(=O)OCC)C(=O)OCC` had a melting point of 58.5 °C. As for `O=C(O)C(O)c1cccc(F)c1` (centres undefined), the melting point turned out to be 96 °C. For `O=S(=O)(c1ccccc1)n1ccc2ccccc21`, the melting point lay within 78 to 80 °C.

Turning to `CC(C)SSC(C)C`, the melting point was -69 °C. In the case of `CN1CCN(Cc2ccc(I)cc2)CC1`, the melting point was 105 to 106 °C. The result for `Clc1cc2c(Cl)cccc2c(Cl)c1Cl` reads 141 °C; that for `O=C=Nc1ccccc1Cl`, 30.5 °C. In turn, `Cc1noc(NS(=O)(=O)c2ccc(N)cc2)c1C` gave a melting point of 193 °C. The result for `O=C(O)C(O)(O)C(O)(O)C(=O)O` reads 114 °C; that for `CN1CCc2cc3c(cc2C1)OCO3`, 66 °C. Then `CCC1CC(N)(C(=O)O)CC(C)(C)N1O` (centres undefined), with 230 °C; and `C=CCOc1cccc(O)c1C(C)=O`, with 45.5 to 46.5 °C; and `CC(C)C12CCC(C)(O1)C(=O)OC2=O` (centres undefined), with 109 °C. The result for `O=C(O)CCCCl` reads 16 °C; that for `Cc1ccc2sccc2c1`, 35 to 36 °C; that for `N#Cc1ccccc1CBr`, 72 °C. As for `NS(=O)(=O)c1ccc(SCCCCCO)cc1`, the melting point was 103 °C. Take `O=NN1NC(=O)CC1c1ccc(C2CC(=O)NN2N=O)cc1` (centres undefined): the melting point was found to be 150 °C. Then `O=CN(c1ccccc1)c1ccccc1`, with 73.5 °C; and `COc1cccc(CO)c1O`, with 59 to 63 °C; and `N#CCCN(CCC#N)c1ccccc1`, with 80 to 88 °C.

Regarding `Cc1nc(N)ccc1[N+](=O)[O-]`, the melting point lay in the range of 185 to 189 °C. The result for `COc1ccc(C(=O)c2nn(-c3ccccc3)/c(=N\N=Cc3ccccc3Cl)s2)cc1` reads 181 °C; that for `CC(=O)OC[C@@H](OC(C)=O)[C@@H](OC(C)=O)[C@H](OC(C)=O)[C@@H](OC(C)=O)C(=O)O`, 109 to 111 °C; that for `FC(F)(F)c1cccc(CSc2nnc(S)s2)c1`, 140 to 142 °C. As for `CCCCCCOC(=O)CCCCC`, the melting point was -55 °C.

With `Cc1cc2cc3c(C)cc(=O)oc3c(C)c2o1`, the melting point lay in the range of 230 to 234 °C. Consider `COc1ccc2[nH]c(C(=O)O)cc2c1`, for which the melting point lay in the range of 197 to 201 °C.

The compound `Nc1ncnc2[nH]ncc12` registered a melting point of 325 °C.

For `Nc1c2c(nc3ccccc13)CCCC2O` (centres undefined), the melting point was 245 °C.

In turn, `Brc1ccc(-c2ccco2)cc1` came in with a melting point of 83 to 84 °C. The compound `CCOC(=O)C1(C)OC(=O)N(c2cc(Cl)cc(Cl)c2)C1=O` (centres undefined) had a melting point of 113 °C. Regarding `NCc1ccc(N2CCCC2)cc1`, the melting point fell in the range of 37 to 44 °C. `CC(C)c1cc(C(=O)O)c(O)c(C(C)C)c1`: the melting point is 117 °C. For the compound `CCCC(=O)C(=O)O`, the melting point stood at 6.5 °C. The compound `c1ccc2c(c1)nnc1ccccc12` registered a melting point of 158 °C. `Cc1cc([N+](=O)[O-])ccc1O` returned a melting point of 96 °C. In the case of `CCCOC(=O)C1=C(C)NC(=S)NC1c1cccc([N+](=O)[O-])c1` (centres undefined), the melting point amounted to 209 °C. As for `CC(C)(C)NC[C@H](O)CO`, the melting point fell in the range of 85 to 89 °C. The result for `O=C(C1=NOC2C(=O)N(c3ccc(F)cc3)C(=O)C12)c1ccccc1` (centres undefined) reads 156 °C; that for `Cc1cccc(NC(N)=O)c1`, 138 to 143 °C; that for `O=c1[nH]c2ncccc2o1`, 214 to 215 °C. `CC(C)(C)c1cc(C(C)(C)C)c2oc3c(C(C)(C)C)cc(C(C)(C)C)c(=O)c-3nc2c1` came in with a melting point of 210 °C. As to `O=C(O)c1ccc(O)nn1`, the melting point lay in the range of 246 to 247 °C. Take `COC(=O)c1cnc(SCC(=O)c2ccc(Cl)cc2)n1C`: the melting point lay within 126 to 127 °C. Take `O=C1OCc2cc(Br)ccc21`: the melting point was in the range of 162 to 166 °C. Regarding `N#CC1CC2C=CC1C2` (centres undefined), the melting point is 13 °C. With `CCNCC`, the melting point was -50 °C. Take `COc1cc(Cl)c(Cl)cc1OC`: the melting point was determined as 83 °C. `Cc1ccncc1/C=N/N(C)C` returned a melting point of 50 °C. Turning to `NNC(=O)COc1ccccc1CSc1ccc(Cl)cc1`, the melting point is 118 to 121 °C. `CC(=O)c1cc(O)cc(O)c1` had a melting point of 143 to 147 °C. On to `COc1ccc(C=Nc2ccc(C3=NNC(=O)CC3)cc2)cc1`, for which the melting point fell in the range of 213 to 215 °C. The compound `CCCOC(=O)C1=C(C)NC(=O)NC1c1ccc2c(c1)OCO2` (centres undefined) showed a melting point of 184 to 185 °C. `Cc1ccnc2c1NC(=O)c1cccnc1N2C1CC1` displayed a melting point of 265 °C.

`CC(=O)C(=NNc1ccc(C(=O)O)cc1)C(C)=O` returned a melting point of 215 °C.

On to `O=C1C=CC(=O)c2cc3ccccc3cc21`, for which the melting point lay within 223 to 226 °C. Consider `O=Cc1ccc(F)c(Br)c1`, for which the melting point amounted to 31 °C. The result for `O=C(O)Cc1cccc(CC(=O)O)c1` reads 175 °C; that for `Cc1cccc(C)c1NC(=O)c1cncc(Cl)n1`, 122 °C; that for `CC=CC1=C(C(=O)O)N2C(=O)C(NC(=O)C(N)c3ccc(O)cc3)C2SC1` (centres undefined), 222 °C. In the case of `CCOC(=O)c1[nH]c(C)c(C(=O)OCC)c1C`, the melting point was determined as 137 °C. Compound `O=C(O)c1ccc2c(c1)CCCN2` showed a melting point of 168 to 170 °C. `Nc1ccc(N2CCCCC2)cc1` showed a melting point of 27 °C. The compound `CC1=NNC(=O)C1=NNc1cccc(F)c1` had a melting point of 218 °C. In turn, `O=C(O)C(C(=O)O)c1ccccc1` yielded a melting point of 153 to 155 °C.

The compound `S=C=NCC(c1ccccc1)c1ccccc1` registered a melting point of 36 to 38 °C. `Nc1ccc(C(=O)O)c(N)c1`: the melting point was found to be 140 °C. In turn, `O=C(C(=O)C(Br)c1ccccc1)C(Br)c1ccccc1` (centres undefined) registered a melting point of 124 °C. In turn, `CCCCCCCc1ccc(C(=O)O)cc1` registered a melting point of 102 °C.

Consider `CCCCCCCCCCC(C)CC` (centres undefined), for which the melting point is -38 °C. Turning to `CC(=NNC(N)=O)c1ccncc1`, the melting point was found to be 218 °C. In the case of `CC(=O)c1ccc(C2CC2Cl)cc1` (centres undefined), the melting point was found to be 45 °C.

With `COC(=O)c1ccc(N2CCCC2)cc1`, the melting point was in the range of 141 to 143 °C. The result for `CC(=O)c1cnc2ccccc2n1` reads 78 °C.

In the case of `O=Cc1cccc(CN2CCOCC2)c1`, the melting point lay in the range of 63 to 64 °C.

`COC(=O)c1cc(Br)cc(Br)c1N` came in with a melting point of 88 °C. The compound `FC(F)(F)CCBr` gave a melting point of less than 25 °C. Then `CCN(C)CC`, with -196 °C; and `COC(=O)C(C#N)=C(NC(=O)c1ccccc1)SC`, with 129 to 131 °C; and `CC(C)c1nc2ccccc2[nH]1`, with 235 °C. In turn, `COc1ccc2c(C)cc(=O)oc2c1` showed a melting point of 161 °C.

As to `CC(=O)N1c2ccccc2CC1c1ccccc1` (centres undefined), the melting point stood at 129 °C.

The compound `CC1(C)N=C(N)N=C(N)N1c1ccc(Cl)cc1` registered a melting point of 146 °C. Compound `O=C(Cl)c1ccc2occc2c1` showed a melting point of 67 to 68 °C. The result for `COc1ccc(C2Nn3c(nnc3-c3ccccc3OC)S2)cc1` (centres undefined) reads 203 to 204 °C. The result for `O=C1OC(=Cc2ccccc2)c2ccccc21` reads 100 °C; that for `Cn1nc(C(F)(F)F)c(C=O)c1Cl`, 41 to 42 °C; that for `O=C1CCCc2c(O)cccc21`, 207 to 210 °C. `CNc1ccc(C#N)cc1N` displayed a melting point of 139 to 142 °C. For `O=C(N[C@H]1CC=CC[C@H]1C(=O)O)OCc1ccccc1` (relative stereo), the melting point lay within 118 to 124 °C. `Nc1ccc(N=Nc2ccc(N=Nc3ccc(N)cc3)cc2)cc1` came in with a melting point of 247 °C.

As for `O=C(O)c1cc(I)cc(I)c1I`, the melting point lay within 223 to 228 °C. In turn, `CC(=O)c1c(-c2cccc(Cl)c2Cl)noc1C` came in with a melting point of 62 to 64 °C.

Compound `CCC(COC(=O)c1cc(OC)c(OC)c(OC)c1)(c1ccccc1)N(C)C` (centres undefined) registered a melting point of 79 °C.
